From patent publication US8030047B2, “Active truncated form of the RNA polymerase of flavivirus” (priority 2003, dated 2011)

Assays:
NS5PolDV = molecular target: T1, NS5PolDV (Dengue virus type 2, UniProt P14340); experiment: RNA polymerase activity of NS5PolDV on homopolymeric template poly(rC), [3H]-GTP incorporation; assay type: biochemical, Dengue virus (subtype 2, Strain New Guinea C); details: for IC50: poly(rC) without primer, GTP 10 mM (so in the source), NS5PolDV 60 nM, [3H]-GTP incorporation after 15 min
T1 construct: The junction (or where the Pol domain starts) is located at amino acid 272; His-tag; made in house; host or cells: E. coli BL21[pDNAy], plasmid pQE30
Description: (§1) Activity was tested on three homopolymeric templates: poly(rC), poly(rU) and poly(rA). Only poly(rC) resulted to be a productive template for NS5PolDV. This was illustrated in FIG. 4 based on the following protocol: RNA polymerase activity was tested on a homopolymeric RNA template (polycytidylic acid, Amersham Biosciences) of an average length of 360 nt. A standard assay was carried out in 50 mM HEPES buffer, pH 8.0, 10 mM KCl, 5 mM MgCl2, 5 mM MnCl2, 10 mM DTT containing 1 μM template, […] primer GG, 10 μM GTP, 0.01 mCi [3H]-GTP per μl reaction mixture and the concentration of enzyme given below. Reactions were carried out at 30° C. for given time periods and stopped by spotting a sample on DEAE filter discs (Whatman) presoaked with 50 mM EDTA. Filters were washed 3×10 min with 300 mM (NH4)2SO4 buffer, pH 8.0 and 2×5 min with EtOH and air-dried. Liquid scintillation fluid was added and incorporation in counts per minute (cpm) determined by using a Wallac MicroBeta TriLux Liquid Scintillation Counter.
A: Influence of specific E. coli RNA polymerase inhibitor rifampicin on NS5PolDV and E. coli polymerase (control). NS5PolDV was tested using the conditions given above at 64-nM enzyme concentration. E. coli RNA polymerase was obtained from USBiochemicals and used in NS5PolDV standard reaction buffer at 37 nM.
In FIG. 5, the steady-state Km determination of GTP with various ligands was performed as follows: RNA polymerase activity was tested under conditions given in the description set forth above in the experiments related to FIG. 4 without the use of a primer. Initial velocities were determined over a time period of 5 min. GTP concentrations in the range of 2 to 500 μM were tested using poly(rC) at 1 μM. Template poly(rC) was tested in the range of 2 to 1000 nM with GTP fixed at 200 μM.
Initial velocities were determined on poly(rC) at 10 mM GTP and compared to corresponding values without inhibitor. […] Since these inhibition results are not identical, questions related to the putative interference of the capping domain remain when using the full-length polymerase.

NS5PolWNV = molecular target: T2, NS5PolWNV (West Nile virus, UniProt Q9Q6P4, K2808N/V2900A); experiment: RNA polymerase activity of NS5PolWNV on homopolymeric template poly(rC), [3H]-GTP incorporation; assay type: biochemical, West Nile virus (strain New York 99); details: poly(rC) without primer; GTP 100 mM (so in the source); [3H]-GTP incorporation after 15 min
T2 construct: His-tag; made in house
T2 sequence (Q9Q6P4 2802-3433 K2808N/V2900A): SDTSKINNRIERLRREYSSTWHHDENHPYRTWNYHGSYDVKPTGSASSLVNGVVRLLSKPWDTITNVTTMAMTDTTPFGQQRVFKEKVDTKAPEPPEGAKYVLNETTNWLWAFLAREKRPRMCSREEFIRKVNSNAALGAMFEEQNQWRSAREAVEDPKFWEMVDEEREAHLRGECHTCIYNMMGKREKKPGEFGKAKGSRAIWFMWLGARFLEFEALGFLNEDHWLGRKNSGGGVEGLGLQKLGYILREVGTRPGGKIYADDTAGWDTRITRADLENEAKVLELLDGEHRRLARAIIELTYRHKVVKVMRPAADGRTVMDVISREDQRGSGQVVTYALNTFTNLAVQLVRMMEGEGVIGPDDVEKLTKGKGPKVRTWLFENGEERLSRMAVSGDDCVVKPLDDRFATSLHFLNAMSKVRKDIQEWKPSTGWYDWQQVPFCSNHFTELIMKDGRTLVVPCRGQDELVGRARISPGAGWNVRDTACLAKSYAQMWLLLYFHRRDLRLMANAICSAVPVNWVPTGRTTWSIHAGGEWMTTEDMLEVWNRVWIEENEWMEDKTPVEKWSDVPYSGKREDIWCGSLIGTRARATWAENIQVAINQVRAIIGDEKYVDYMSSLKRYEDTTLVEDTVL

full-length NS5DV = molecular target: T3, full-length NS5DV (Dengue virus type 2, UniProt P14340); experiment: RNA polymerase activity of full-length NS5DV on poly(rC); assay type: biochemical, Dengue virus (subtype 2, Strain New Guinea C); details: inhibitor 10 mM, 10 mM GTP, read-out: Initial velocity compared to the protein without inhibitor
T3 construct: His-tag; made in house; host or cells: E. coli BL21[pDNAy], plasmid pQE30
Description: as §1, with “Filters were washed 3×10 min with 300 mM (NH4)2SO4 buffer, pH 8.0 and 2×5 min with EtOH and air-dried.” left out
In FIG. 5, the steady-state Km determination of GTP with various ligands was performed as follows: RNA polymerase activity was tested under conditions given in the description set forth above in the experiments related to FIG. 4 without the use of a primer. Initial velocities were determined over a time period of 5 min. […]
Initial velocities were determined on poly(rC) at 10 mM GTP and compared to corresponding values without inhibitor. […]

Compound | IC50 (NS5PolDV) | IC50 (NS5PolWNV) | activity at 10000 µM (full-length NS5DV) | activity at 10000 µM (NS5PolDV; read-out: Initial velocity compared to the protein without inhibitor)
Nc1nc2c(ncn2[C@@H]2O[C@H](COP(=O)(O)OP(=O)(O)OP(=O)(O)O)C[C@H]2O)c(=O)[nH]1 [3′-deoxy GTP] | 20 nM |  |  | 
Nc1nc2c(ncn2[C@H]2CC[C@@H](COP(=O)(O)OP(=O)(O)OP(=O)(O)O)O2)c(=O)[nH]1 [2′,3′-dideoxy GTP] | 800 nM |  |  | 
3′-dioxolane 3′-deoxy GTP | 1200 nM | 58000 nM |  | 
CO[C@@H]1[C@H](O)[C@@H](COP(=O)(O)OP(=O)(O)OP(=O)(O)O)O[C@H]1n1cnc2c(=O)[nH]c(N)nc21 [2′-O-methyl-GTP] | 5600 nM |  | 19.3% | 29.3%
